For three molecules, Activity results are on record in ChEMBL document CHEMBL2429821, “A Casein kinase 1/Checkpoint kinase 1 pyrazolo-pyridine protein kinase inhibitor as novel activator of the p53 pathway” (Bioorg Med Chem Lett, 2013).

Assay [1] concerns the target Serine/threonine-protein kinase PLK1 (Homo sapiens) (UniProt P53350). The assay is described as follows: Inhibition of human PLK1 assessed as residual activity at 1 uM relative to control.
In assay [2] the target is Serine/threonine-protein kinase PAK 4 (Homo sapiens) (UniProt O96013). The assay is described as follows: Inhibition of human PAK4 assessed as residual activity at 1 uM relative to control.
Assay [3] concerns the target T1, Casein kinase II (Homo sapiens) (UniProt P67870+P68400+P19784). The assay is described as follows: Inhibition of human CK2 assessed as residual activity at 1 uM relative to control. It counts as protein-complex assay.
Assay [4] deals with Tyrosine-protein kinase Yes (Homo sapiens) (UniProt P07947). As to the kind of experiment: Inhibition of human YES1 assessed as residual activity at 10 uM relative to control.
Assay [5] concerns the target Ribosomal protein S6 kinase alpha-3 (Homo sapiens) (UniProt P51812). As to the kind of experiment: Inhibition of human RSK2 assessed as residual activity at 10 uM relative to control.
Assay [6] addresses Serine/threonine-protein kinase PLK1 (Homo sapiens) (UniProt P53350). The assay is described as follows: Inhibition of human PLK1 assessed as residual activity at 10 uM relative to control.
The target of assay [7] is T2, Protein kinase C zeta type (Homo sapiens) (UniProt Q05513).
T2 sequence (whole entry): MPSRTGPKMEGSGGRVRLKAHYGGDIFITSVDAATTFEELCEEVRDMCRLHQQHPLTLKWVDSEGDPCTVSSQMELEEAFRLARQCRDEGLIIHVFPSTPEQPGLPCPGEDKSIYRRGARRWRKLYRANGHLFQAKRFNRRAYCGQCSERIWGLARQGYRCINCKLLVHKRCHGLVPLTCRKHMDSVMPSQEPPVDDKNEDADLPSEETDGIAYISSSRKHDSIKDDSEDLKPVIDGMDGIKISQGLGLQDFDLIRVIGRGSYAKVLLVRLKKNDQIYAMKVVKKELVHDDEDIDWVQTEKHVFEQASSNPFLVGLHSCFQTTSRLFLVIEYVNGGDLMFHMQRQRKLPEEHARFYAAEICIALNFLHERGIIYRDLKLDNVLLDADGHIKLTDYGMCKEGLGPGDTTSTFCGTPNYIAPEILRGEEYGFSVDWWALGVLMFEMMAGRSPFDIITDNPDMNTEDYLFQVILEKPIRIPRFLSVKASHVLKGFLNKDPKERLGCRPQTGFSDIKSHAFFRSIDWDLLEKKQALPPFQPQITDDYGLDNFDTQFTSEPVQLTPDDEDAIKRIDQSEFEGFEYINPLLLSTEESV
As to the kind of experiment: Inhibition of human PKCzeta assessed as residual activity at 10 uM relative to control.

In assay [8] the target is T1, Casein kinase II (Homo sapiens). As to the kind of experiment: Inhibition of human CK2 assessed as residual activity at 10 uM relative to control. It counts as protein-complex assay.
The species named for assay [9] is Rattus norvegicus. The assay is described as follows: Inhibition of rat AMPK assessed as residual activity at 10 uM relative to control.
Assay [10] deals with T3, Serine/threonine-protein kinase D1 (Homo sapiens) (UniProt Q15139).
T3 sequence (whole entry): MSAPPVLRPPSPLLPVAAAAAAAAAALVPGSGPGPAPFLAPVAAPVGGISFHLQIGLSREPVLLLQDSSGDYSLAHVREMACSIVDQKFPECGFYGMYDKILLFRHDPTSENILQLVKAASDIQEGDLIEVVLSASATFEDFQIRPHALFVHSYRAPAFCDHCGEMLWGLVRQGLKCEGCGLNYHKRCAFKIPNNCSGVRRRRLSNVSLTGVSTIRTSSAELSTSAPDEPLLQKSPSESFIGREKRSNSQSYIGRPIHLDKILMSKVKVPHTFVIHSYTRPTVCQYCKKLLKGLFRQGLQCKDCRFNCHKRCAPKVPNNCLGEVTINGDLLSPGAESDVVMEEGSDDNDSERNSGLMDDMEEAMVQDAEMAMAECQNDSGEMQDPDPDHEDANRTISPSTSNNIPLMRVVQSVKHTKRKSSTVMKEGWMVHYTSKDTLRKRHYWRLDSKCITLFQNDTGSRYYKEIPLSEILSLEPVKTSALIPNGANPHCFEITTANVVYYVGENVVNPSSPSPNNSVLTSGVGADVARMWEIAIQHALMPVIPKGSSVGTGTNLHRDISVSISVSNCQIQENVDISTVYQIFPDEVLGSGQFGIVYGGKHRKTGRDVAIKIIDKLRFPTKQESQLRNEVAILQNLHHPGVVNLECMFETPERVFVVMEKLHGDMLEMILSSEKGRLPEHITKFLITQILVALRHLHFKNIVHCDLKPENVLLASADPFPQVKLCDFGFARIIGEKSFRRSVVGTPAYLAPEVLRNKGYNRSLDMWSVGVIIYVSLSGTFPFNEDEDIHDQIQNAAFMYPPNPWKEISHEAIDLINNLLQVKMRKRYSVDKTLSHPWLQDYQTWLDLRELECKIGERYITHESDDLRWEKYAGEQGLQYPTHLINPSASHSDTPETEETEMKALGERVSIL
The assay is described as follows: Inhibition of human PKD1 assessed as residual activity at 1 uM relative to control.

The target in assay [11] is Serine/threonine-protein kinase N2 (Homo sapiens) (UniProt Q16513). The assay is described as follows: Inhibition of human PRK2 assessed as residual activity at 1 uM relative to control.
For assay [12], the target named is MAP/microtubule affinity-regulating kinase 3 (Homo sapiens) (UniProt P27448). The assay is described as follows: Inhibition of human MARK3 assessed as residual activity at 1 uM relative to control.
Assay [13] addresses Serine/threonine-protein kinase Chk2 (Homo sapiens) (UniProt O96017). The assay is described as follows: Inhibition of human CHK2 assessed as residual activity at 1 uM relative to control.
Assay [14] addresses Cyclin-dependent kinase 2 (Homo sapiens) (UniProt P24941). As to the kind of experiment: Inhibition of human CDK2 assessed as residual activity at 1 uM relative to control.
Assay [15] addresses Proto-oncogene tyrosine-protein kinase Src (Homo sapiens) (UniProt P12931). As to the kind of experiment: Inhibition of human SRC assessed as residual activity at 10 uM relative to control.
Assay [16] deals with MAP/microtubule affinity-regulating kinase 3 (Homo sapiens) (UniProt P27448). The assay is described as follows: Inhibition of human MARK3 assessed as residual activity at 10 uM relative to control.
Assay [17] deals with Mitogen-activated protein kinase 9 (Homo sapiens) (UniProt P45984). The assay is described as follows: Inhibition of human JNK2 assessed as residual activity at 10 uM relative to control.
Assay [18] concerns the target Tyrosine-protein kinase CSK (Homo sapiens) (UniProt P41240). As to the kind of experiment: Inhibition of human CSK assessed as residual activity at 10 uM relative to control.

Tyrosine-protein kinase CSK (Homo sapiens), sequence (P41240 2-450 limits assumed): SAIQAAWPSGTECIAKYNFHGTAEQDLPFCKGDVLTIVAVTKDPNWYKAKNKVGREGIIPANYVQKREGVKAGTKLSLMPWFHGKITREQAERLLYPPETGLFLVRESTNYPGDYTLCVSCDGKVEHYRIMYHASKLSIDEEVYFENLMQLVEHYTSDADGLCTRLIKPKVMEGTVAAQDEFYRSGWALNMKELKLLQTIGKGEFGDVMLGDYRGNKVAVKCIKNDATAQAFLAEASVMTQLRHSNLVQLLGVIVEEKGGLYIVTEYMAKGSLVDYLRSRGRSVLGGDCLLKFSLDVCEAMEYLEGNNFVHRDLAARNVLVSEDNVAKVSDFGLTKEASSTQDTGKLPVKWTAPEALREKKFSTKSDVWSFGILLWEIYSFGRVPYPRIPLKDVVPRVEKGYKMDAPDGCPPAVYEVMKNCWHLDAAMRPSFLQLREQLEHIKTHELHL
Proto-oncogene tyrosine-protein kinase Src (Homo sapiens), sequence (P12931 2-536 limits assumed): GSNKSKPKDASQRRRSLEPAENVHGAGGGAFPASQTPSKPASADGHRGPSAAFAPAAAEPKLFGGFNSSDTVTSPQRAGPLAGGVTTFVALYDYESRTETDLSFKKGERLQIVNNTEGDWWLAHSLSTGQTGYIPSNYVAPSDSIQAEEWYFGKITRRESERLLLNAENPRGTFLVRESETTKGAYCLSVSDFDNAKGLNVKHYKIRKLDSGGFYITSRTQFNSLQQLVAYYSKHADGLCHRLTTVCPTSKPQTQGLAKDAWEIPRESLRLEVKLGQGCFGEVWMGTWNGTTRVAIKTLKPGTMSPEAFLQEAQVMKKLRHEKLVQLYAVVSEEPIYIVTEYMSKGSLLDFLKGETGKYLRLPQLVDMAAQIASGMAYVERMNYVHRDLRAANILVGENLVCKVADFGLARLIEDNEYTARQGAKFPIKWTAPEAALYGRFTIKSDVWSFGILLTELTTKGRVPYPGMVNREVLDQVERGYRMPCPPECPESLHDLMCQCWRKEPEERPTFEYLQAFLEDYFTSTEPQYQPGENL
Mitogen-activated protein kinase 9 (Homo sapiens), sequence (P45984 whole entry, looked up): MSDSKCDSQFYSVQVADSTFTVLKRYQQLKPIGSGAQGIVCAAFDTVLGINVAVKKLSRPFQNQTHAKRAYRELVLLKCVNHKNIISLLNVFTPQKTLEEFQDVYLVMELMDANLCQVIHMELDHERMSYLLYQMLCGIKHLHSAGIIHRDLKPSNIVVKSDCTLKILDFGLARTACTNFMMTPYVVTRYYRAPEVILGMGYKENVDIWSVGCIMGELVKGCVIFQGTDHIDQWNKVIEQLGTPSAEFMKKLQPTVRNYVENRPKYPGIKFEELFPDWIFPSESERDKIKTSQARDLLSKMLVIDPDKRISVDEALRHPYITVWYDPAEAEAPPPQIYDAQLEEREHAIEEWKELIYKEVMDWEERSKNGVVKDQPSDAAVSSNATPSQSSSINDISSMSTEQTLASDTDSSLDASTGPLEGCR
Tyrosine-protein kinase Yes (Homo sapiens), sequence (P07947 2-543 limits assumed): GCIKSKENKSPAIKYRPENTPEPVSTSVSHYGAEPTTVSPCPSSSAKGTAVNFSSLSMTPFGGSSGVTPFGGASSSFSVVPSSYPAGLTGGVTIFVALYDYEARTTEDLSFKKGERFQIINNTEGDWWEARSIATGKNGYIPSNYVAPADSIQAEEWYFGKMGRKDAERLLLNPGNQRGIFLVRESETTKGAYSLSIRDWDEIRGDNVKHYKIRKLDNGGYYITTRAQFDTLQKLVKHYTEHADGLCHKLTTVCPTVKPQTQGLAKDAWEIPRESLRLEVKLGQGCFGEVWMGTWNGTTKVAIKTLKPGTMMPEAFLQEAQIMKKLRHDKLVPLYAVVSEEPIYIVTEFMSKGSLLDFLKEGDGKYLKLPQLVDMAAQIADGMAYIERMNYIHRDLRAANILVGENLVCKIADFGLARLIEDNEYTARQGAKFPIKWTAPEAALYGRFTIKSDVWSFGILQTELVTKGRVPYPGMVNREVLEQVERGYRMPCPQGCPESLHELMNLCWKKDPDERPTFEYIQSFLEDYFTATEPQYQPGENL
Serine/threonine-protein kinase PAK 4 (Homo sapiens), sequence (O96013 whole entry, looked up): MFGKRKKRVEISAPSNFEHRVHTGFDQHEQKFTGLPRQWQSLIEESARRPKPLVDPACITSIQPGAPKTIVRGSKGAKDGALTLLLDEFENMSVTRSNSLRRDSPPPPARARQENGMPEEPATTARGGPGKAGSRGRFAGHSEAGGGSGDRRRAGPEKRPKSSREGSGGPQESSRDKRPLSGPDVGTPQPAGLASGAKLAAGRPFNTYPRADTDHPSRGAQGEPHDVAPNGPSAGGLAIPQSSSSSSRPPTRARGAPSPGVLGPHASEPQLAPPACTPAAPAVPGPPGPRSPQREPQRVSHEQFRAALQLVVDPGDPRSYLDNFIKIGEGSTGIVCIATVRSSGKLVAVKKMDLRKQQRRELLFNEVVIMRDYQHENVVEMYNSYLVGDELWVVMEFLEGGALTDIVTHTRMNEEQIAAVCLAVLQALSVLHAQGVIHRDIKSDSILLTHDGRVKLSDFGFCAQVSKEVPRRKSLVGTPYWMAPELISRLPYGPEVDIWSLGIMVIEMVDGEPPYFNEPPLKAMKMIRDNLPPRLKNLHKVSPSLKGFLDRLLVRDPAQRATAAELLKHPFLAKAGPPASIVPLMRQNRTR
Serine/threonine-protein kinase N2 (Homo sapiens), sequence (Q16513 whole entry, looked up): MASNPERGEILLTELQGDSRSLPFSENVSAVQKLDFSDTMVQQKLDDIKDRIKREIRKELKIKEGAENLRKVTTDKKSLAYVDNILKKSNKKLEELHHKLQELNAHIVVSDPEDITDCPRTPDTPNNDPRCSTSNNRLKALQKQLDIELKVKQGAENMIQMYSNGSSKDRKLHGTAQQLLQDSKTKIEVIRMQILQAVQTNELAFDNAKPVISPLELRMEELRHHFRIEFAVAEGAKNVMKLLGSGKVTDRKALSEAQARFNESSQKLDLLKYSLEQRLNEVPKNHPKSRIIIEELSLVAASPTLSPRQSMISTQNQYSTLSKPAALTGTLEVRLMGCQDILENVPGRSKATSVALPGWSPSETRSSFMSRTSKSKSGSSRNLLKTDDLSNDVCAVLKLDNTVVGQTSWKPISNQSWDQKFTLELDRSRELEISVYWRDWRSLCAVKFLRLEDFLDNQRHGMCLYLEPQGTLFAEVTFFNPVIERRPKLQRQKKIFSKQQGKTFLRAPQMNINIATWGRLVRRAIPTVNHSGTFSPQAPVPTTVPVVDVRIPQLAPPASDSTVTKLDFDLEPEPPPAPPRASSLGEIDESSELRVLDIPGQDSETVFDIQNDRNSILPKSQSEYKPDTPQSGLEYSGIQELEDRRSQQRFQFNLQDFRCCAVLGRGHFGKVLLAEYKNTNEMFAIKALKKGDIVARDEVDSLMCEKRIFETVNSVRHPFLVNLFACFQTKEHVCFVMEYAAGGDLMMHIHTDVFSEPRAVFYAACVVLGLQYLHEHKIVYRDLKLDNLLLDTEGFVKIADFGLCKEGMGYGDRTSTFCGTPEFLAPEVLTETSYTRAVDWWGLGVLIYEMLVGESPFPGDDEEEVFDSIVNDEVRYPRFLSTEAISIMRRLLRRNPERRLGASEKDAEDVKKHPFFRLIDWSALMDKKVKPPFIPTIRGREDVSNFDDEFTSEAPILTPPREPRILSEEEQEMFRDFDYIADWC
MAP/microtubule affinity-regulating kinase 3 (Homo sapiens), sequence (P27448 whole entry, looked up): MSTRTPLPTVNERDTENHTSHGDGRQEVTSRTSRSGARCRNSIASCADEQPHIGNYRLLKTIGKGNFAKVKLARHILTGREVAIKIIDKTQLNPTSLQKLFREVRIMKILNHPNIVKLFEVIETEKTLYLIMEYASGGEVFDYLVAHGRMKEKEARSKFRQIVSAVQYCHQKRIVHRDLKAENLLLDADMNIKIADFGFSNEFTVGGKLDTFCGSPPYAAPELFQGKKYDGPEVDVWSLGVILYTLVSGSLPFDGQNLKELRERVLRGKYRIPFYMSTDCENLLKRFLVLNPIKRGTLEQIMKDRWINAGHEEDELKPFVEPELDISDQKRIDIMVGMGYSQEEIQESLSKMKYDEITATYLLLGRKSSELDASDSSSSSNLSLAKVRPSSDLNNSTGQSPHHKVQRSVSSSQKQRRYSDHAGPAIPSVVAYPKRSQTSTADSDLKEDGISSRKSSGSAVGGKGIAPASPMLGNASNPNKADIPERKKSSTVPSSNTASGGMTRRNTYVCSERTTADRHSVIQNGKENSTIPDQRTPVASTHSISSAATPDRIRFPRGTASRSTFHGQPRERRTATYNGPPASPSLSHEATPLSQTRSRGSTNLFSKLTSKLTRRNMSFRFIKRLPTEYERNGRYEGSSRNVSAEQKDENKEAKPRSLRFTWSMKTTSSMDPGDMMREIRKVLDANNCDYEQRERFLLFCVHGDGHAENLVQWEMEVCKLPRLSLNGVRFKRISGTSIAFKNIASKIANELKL
Ribosomal protein S6 kinase alpha-3 (Homo sapiens), sequence (P51812 whole entry): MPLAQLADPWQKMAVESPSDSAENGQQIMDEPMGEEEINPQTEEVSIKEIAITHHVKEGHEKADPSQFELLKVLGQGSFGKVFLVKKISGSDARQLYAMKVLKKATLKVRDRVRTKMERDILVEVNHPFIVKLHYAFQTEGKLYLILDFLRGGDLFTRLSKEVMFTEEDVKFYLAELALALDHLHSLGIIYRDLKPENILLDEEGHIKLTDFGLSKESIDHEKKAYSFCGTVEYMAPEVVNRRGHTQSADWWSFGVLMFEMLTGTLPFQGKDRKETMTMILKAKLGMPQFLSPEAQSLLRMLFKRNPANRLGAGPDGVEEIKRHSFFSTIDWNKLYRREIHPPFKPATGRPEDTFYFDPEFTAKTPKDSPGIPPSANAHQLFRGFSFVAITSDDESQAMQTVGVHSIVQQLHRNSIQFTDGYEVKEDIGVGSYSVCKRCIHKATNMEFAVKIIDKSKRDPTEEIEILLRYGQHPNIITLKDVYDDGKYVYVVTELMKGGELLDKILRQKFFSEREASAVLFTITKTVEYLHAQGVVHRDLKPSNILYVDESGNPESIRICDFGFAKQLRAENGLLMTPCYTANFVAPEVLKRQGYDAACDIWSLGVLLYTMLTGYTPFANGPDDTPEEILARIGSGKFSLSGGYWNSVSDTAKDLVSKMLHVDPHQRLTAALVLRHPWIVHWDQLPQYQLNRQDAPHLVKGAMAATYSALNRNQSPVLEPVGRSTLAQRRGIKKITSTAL

Turning to `CC(=O)Nc1nccc(-c2c(-c3ccccc3)noc2C)n1`, the Activity in assay [1] turned out to be 76%; in assay [2], 115%; in assay [3], 79.3%; in assay [4] it was 78.2%; in [5], 103%; in assay [6], 81.6%. Moreover, the Activity in [7] came to 82%; in assay [8], 107%; in assay [9], 101%; in [10], 80.7%; in assay [11], 77.6%; in assay [12], 94.6%. Further, the Activity in [13] was found to be 89.5%; in assay [14], 92.2%; in [15] it was 91.9%; in [16], 79.2%; in assay [17] it was 23.4%; in assay [18], 104%.

On to `CCCC(=O)Nc1n[nH]c2ncc(-c3cccnc3)cc12`, for which the Activity in assay [1] turned out to be 97%; in assay [2], 89%; in assay [3], 82%; in assay [4], 54%; in [5] it was 87%; in [6], 80%. For the same molecule, the Activity amounted to 77% in [7]; 68% in [8]; 105% in assay [9]; 76% in assay [10]; 81% in [11]; 84% in assay [12]. Besides, the Activity worked out at 96% in assay [13]; 9% in [14]; 72% in assay [15]; 62% in assay [16]; 88% in assay [17]; 80% in assay [18].

With `CC(=O)Nc1cccc(-c2cnc3[nH]nc(C)c3c2)c1`, the Activity came out at 106% in assay [1]; 71.2% in [2]; 102% in assay [3]; 56.9% in assay [4]; 78.3% in assay [5]; 95.5% in [6]. Moreover, the Activity in assay [7] was 84.2%; in [8], 80.5%; in [9] it was 69.9%; in [10], 108%; in [11], 99.9%; in assay [12], 62.6%. Also, the Activity in assay [13] came to 68.5%; in assay [14], 76.7%; in assay [15], 23.8%; in [16], 17.9%; in assay [17], 70.9%; in [18], 48%.
